# From PMC10445290, “Enantiomeric Fractions Reveal Differences in the Atropselective Disposition of 2,2′,3,5′,6-Pentachlorobiphenyl (PCB 95) in Wildtype, Cyp2abfgs-Null, and CYP2A6-Humanized Mice” (Chemical Research in Toxicology, 2023)
# Where two headings read alike, the source gives them in different places.
# Columns and labels:
# [1] = design: method as in PMID 26463278; settings: male Wistar rats, sub-acute oral exposure; cited from earlier work
# [2] = Levels of PCB 95 and its hydroxylated metabolites in adipose, blood, brain and liver 24 h after a single oral dose (GC-MS/MS); assay type: in vivo, mice; settings: for Levels in blood / Levels in adipose / Levels in liver / concentration at 24 h: 1 mg/kg; for concentration at 24 h: po
# Description: Adult male and female wild-type (WT) C57BL/6 mice, KO, and KI mice (4 months old) were exposed to racemic PCB 95. Mice were randomly assigned to exposure groups and received a single oral dose of PCB 95 (1.0 mg/kg) in stripped corn oil (10 mL/kg; lot# A0395699; cat# 801-03-7; Fisher Scientific) via gavage (5–7 mice per group). Control animals received corn oil alone (1–3 mice per group) to assess the potential background contamination with PCB 95. Animals were euthanized 24 h after PCB 95 exposure. Blood was collected from the heart and placed in pre-weighed glass vials with 80 μL of ethylenediaminetetraacetic acid solution (EDTA, 7.5%, w/w). The amount of blood in each vial was determined by weight prior to sample extraction. Adipose, brain, and liver tissues were excised from each animal and individually wrapped in aluminum foil. Samples were stored at −80 °C in separate plastic bags and shipped on dry ice to the University of Iowa for analysis.
# PCB 95 and its hydroxylated metabolites were extracted from adipose (0.06 ± 0.01 g), brain (0.19 ± 0.03 g) and liver tissues (0.49 ± 0.07 g) by pressurized liquid extraction (PLE) with a Dionex ASE200 system (Dionex, Sunnyvale, CA, USA).[45] Tissues were homogenized with 2 g of pre-cleaned diatomaceous earth (Thermo Fisher Scientific, Pittsburgh, PA, USA) and placed in extraction cells loaded with 10 g of pre-extracted Florisil (60–100 mesh, Fisher Scientific, Pittsburgh, PA, USA). Tissue samples were then spiked with recovery standards [50 ng of PCB 117 in 50 μL of isooctane and 50 ng of 4′-159 (2′,3,3′,5,5′,6′-hexachlorobiphenyl-4-ol) in 50 μL of methanol]. For ongoing precision recovery (OPR) samples; recovery standard, internal standard, PCB 95, and its metabolites (50 ng each) were spiked to the method blank (DE only) and tissues from control animals. Cells were extracted with hexane–dichloromethane–methanol (48:43:9, v/v/v) at 100 °C and 1500 psi (10 MPa), with preheat equilibration for 6 min, 60% of cell flush volume, and 1 static cycle of 5 min. The extracts were concentrated to approximately 1 mL with a TurboVap II (Biotage, LLC, NC, USA) and transferred to new glass tubes with 1 mL of hexane. The solvent was evaporated to near dryness under a gentle stream of nitrogen, and extracts were redissolved in 1 mL of hexane.
# PCB 95 and its hydroxylated metabolites were extracted from whole blood (0.45 ± 0.13 g) using a published liquid–liquid extraction procedure.[29] Briefly, blood samples were thawed, and 3 mL of aqueous 1% KCl solution was added to each sample. Recovery standards (50 ng of PCB 117 in 50 μL of isooctane and 50 ng of 4′-159 in 50 μL of methanol) were spiked to all samples, including OPR samples, before extraction. Subsequently, 1 mL of 6 M HCl, 5 mL of 2-propanol, and 5 mL of 1:1 hexane–MTBE mixture (v/v) were added to the blood samples. The samples were inverted for 5 min and centrifuged at 1690g for 5 min to facilitate the phase separation. Next, the organic phases were transferred to new glass tubes, and the aqueous phases were re-extracted with 3 mL of hexane. Next, three mL of aqueous 1% KCl were added to the combined organic extracts, and samples were inverted and centrifuged as described above. The organic phase was transferred to a new tube, and the aqueous phase was re-extracted with 3 mL of hexane. The combined organic extracts were evaporated to near dryness using a Savant SpeedVac SPD210 (Thermo Scientific, Waltham, MA, US), and each sample was reconstituted with 0.5 mL of hexane.
# Five drops of methanol and 0.5 mL of diazomethane (CH2N2; about 0.1 mmol) in diethyl ether were added to the tissue or blood extracts to derivatize the OH-PCBs.[45] Diazomethane rapidly converts the phenolic hydroxyl groups of OH-PCBs to methoxy groups (i.e., −OH → −OCH3). All samples were stored at 4 °C for approximately 16 h. Excess diazomethane evaporated under a gentle stream of nitrogen in a fume hood, followed by adding 0.5 mL of hexane. […]
# [3] = MKI, male CYP2A6-humanized mice, single oral PCB 95 1.0 mg/kg, mean ± SD
# [4] = MWT, male wildtype mice, single oral PCB 95 1.0 mg/kg, mean ± SD
smiles,measurement,setting,value
"Clc1ccc(Cl)c(-c2c(Cl)ccc(Cl)c2Cl)c1 [PCB 95, 2,2′,3,5′,6-pentachlorobiphenyl]",PCB 95 levels in adipose tissue,[1],9300 ng/g
same,PCB 95 levels in blood,[1],9 ng/g
same,PCB 95 levels in the cerebellum,[1],51 ng/g
same,PCB 95 levels in the cortex,[1],29 ng/g
same,PCB 95 levels in the liver,[1],120 ng/g
same,Levels in blood,"[2]; FKO, female Cyp2abfgs-null mice, single oral PCB 95 1.0 mg/kg, mean ± SD",9 ng/g tissue
same,Levels in adipose,"[2]; FWT, female wildtype mice, single oral PCB 95 1.0 mg/kg, mean ± SD",1300 ng/g tissue
same,Levels in blood,[2]; [3],16 ng/g tissue
same,Levels in liver,[2]; [3],183 ng/g tissue
same,Levels in adipose,"[2]; MKO, male Cyp2abfgs-null mice, single oral PCB 95 1.0 mg/kg, mean ± SD",690 ng/g tissue
same,Levels in adipose,[2]; [4],1300 ng/g tissue
same,Levels in liver,[2]; [4],96 ng/g tissue
same,Kp at 24 h,"[2]; both sexes, C57BL/6 (wild-type), KO and KI, mouse, adipose / whole blood, all six exposure groups, single oral 1.0 mg/kg, read-out: Mean adipose levels, times higher than the blood levels",42 to 68
same,concentration at 24 h,"[2]; both sexes, C57BL/6 (wild-type), KO and KI, mouse, brain, range across all three genotypes and both sexes, single oral 1.0 mg/kg, read-out: PCB 95 levels in the whole brain",13 to 21 ng/g
same,concentration at 24 h,"[2]; female, C57BL/6 (wild-type), mouse, adipose, FWT, female wildtype mice, single oral PCB 95 1.0 mg/kg, mean ± SD, read-out: Levels in adipose",1310 ± 405 ng/g
same,concentration at 24 h,"[2]; female, C57BL/6 (wild-type), mouse, brain, FWT, female wildtype mice, single oral PCB 95 1.0 mg/kg, mean ± SD, read-out: Levels in brain",19.2 ± 7.3 ng/g
same,concentration at 24 h,"[2]; female, C57BL/6 (wild-type), mouse, liver, FWT, female wildtype mice, single oral PCB 95 1.0 mg/kg, mean ± SD, read-out: Levels in liver",120 ± 42.1 ng/g
same,concentration at 24 h,"[2]; female, C57BL/6 (wild-type), mouse, whole blood, FWT, female wildtype mice, single oral PCB 95 1.0 mg/kg, mean ± SD, read-out: Levels in blood",9.1 ± 2.7 ng/g
same,concentration at 24 h,"[2]; female, CYP2A6-humanized (KI), mouse, adipose, FKI, female CYP2A6-humanized mice, single oral PCB 95 1.0 mg/kg, mean ± SD, read-out: Levels in adipose",824 ± 458 ng/g
same,concentration at 24 h,"[2]; female, CYP2A6-humanized (KI), mouse, brain, FKI, female CYP2A6-humanized mice, single oral PCB 95 1.0 mg/kg, mean ± SD, read-out: Levels in brain",19.7 ± 6.8 ng/g
same,concentration at 24 h,"[2]; female, CYP2A6-humanized (KI), mouse, liver, FKI, female CYP2A6-humanized mice, single oral PCB 95 1.0 mg/kg, mean ± SD, read-out: Levels in liver",114 ± 44.1 ng/g
same,concentration at 24 h,"[2]; female, CYP2A6-humanized (KI), mouse, whole blood, FKI, female CYP2A6-humanized mice, single oral PCB 95 1.0 mg/kg, mean ± SD, read-out: Levels in blood",12.9 ± 15.4 ng/g
same,concentration at 24 h,"[2]; female, Cyp2abfgs-null (KO), mouse, adipose, FKO, female Cyp2abfgs-null mice, single oral PCB 95 1.0 mg/kg, mean ± SD, read-out: Levels in adipose",859 ± 317 ng/g
same,concentration at 24 h,"[2]; female, Cyp2abfgs-null (KO), mouse, brain, FKO, female Cyp2abfgs-null mice, single oral PCB 95 1.0 mg/kg, mean ± SD, read-out: Levels in brain",20.6 ± 8.2 ng/g
same,concentration at 24 h,"[2]; female, Cyp2abfgs-null (KO), mouse, liver, FKO, female Cyp2abfgs-null mice, single oral PCB 95 1.0 mg/kg, mean ± SD, read-out: Levels in liver",109 ± 29.7 ng/g
same,concentration at 24 h,"[2]; female, Cyp2abfgs-null (KO), mouse, whole blood, FKO, female Cyp2abfgs-null mice, single oral PCB 95 1.0 mg/kg, mean ± SD, read-out: Levels in blood",8.6 ± 4.2 ng/g
same,concentration at 24 h,"[2]; male, C57BL/6 (wild-type), mouse, adipose, MWT, male wildtype mice, single oral PCB 95 1.0 mg/kg, mean ± SD, read-out: Levels in adipose",1320 ± 297 ng/g
same,concentration at 24 h,"[2]; male, C57BL/6 (wild-type), mouse, brain, MWT, male wildtype mice, single oral PCB 95 1.0 mg/kg, mean ± SD, read-out: Levels in brain",19.3 ± 4 ng/g
same,concentration at 24 h,"[2]; male, C57BL/6 (wild-type), mouse, liver, MWT, male wildtype mice, single oral PCB 95 1.0 mg/kg, mean ± SD, read-out: Levels in liver",96.3 ± 31.7 ng/g
same,concentration at 24 h,"[2]; male, C57BL/6 (wild-type), mouse, whole blood, MWT, male wildtype mice, single oral PCB 95 1.0 mg/kg, mean ± SD, read-out: Levels in blood",14.1 ± 2 ng/g
same,concentration at 24 h,"[2]; male, CYP2A6-humanized (KI), mouse, adipose, MKI, male CYP2A6-humanized mice, single oral PCB 95 1.0 mg/kg, mean ± SD, read-out: Levels in adipose",734 ± 355 ng/g
same,concentration at 24 h,"[2]; male, CYP2A6-humanized (KI), mouse, brain, MKI, male CYP2A6-humanized mice, single oral PCB 95 1.0 mg/kg, mean ± SD, read-out: Levels in brain",13.3 ± 5.7 ng/g
same,concentration at 24 h,"[2]; male, CYP2A6-humanized (KI), mouse, liver, MKI, male CYP2A6-humanized mice, single oral PCB 95 1.0 mg/kg, mean ± SD, read-out: Levels in liver",183 ± 190 ng/g
same,concentration at 24 h,"[2]; male, CYP2A6-humanized (KI), mouse, whole blood, MKI, male CYP2A6-humanized mice, single oral PCB 95 1.0 mg/kg, mean ± SD, read-out: Levels in blood",15.6 ± 18.3 ng/g
same,concentration at 24 h,"[2]; male, Cyp2abfgs-null (KO), mouse, adipose, MKO, male Cyp2abfgs-null mice, single oral PCB 95 1.0 mg/kg, mean ± SD, read-out: Levels in adipose",692 ± 93 ng/g
same,concentration at 24 h,"[2]; male, Cyp2abfgs-null (KO), mouse, brain, MKO, male Cyp2abfgs-null mice, single oral PCB 95 1.0 mg/kg, mean ± SD, read-out: Levels in brain",13.1 ± 6.1 ng/g
same,concentration at 24 h,"[2]; male, Cyp2abfgs-null (KO), mouse, liver, MKO, male Cyp2abfgs-null mice, single oral PCB 95 1.0 mg/kg, mean ± SD, read-out: Levels in liver",146 ± 42.6 ng/g
same,concentration at 24 h,"[2]; male, Cyp2abfgs-null (KO), mouse, whole blood, MKO, male Cyp2abfgs-null mice, single oral PCB 95 1.0 mg/kg, mean ± SD, read-out: Levels in blood",10.6 ± 7.4 ng/g
